Source: patent publication US20250197343A1, “CATIONIC LIPID” (TAKEDA PHARMACEUTICAL COMPANY LIMITED, priority 2021, published 2025)

How the values were obtained:
[1] = Rate of encapsulation of Luc DNA in lipid nanoparticles; format: physicochemical; design: unit: %; details: Luc DNA-encapsulated lipid nanoparticles; cationic lipid:DPPC:cholesterol:GM-020=60:10.6:28:1.4 molar ratio
Excerpt: The concentration and rate of encapsulation of the nucleic acid (e.g., siRNA or mRNA) in the composition of the present invention can be measured by a known approach. For example, the nucleic acid is fluorescently labeled using Quant-iT™ RiboGreen® (Invitrogen Corp.), and the fluorescence intensity can be measured to determine the concentration and the rate of encapsulation. The concentration of the nucleic acid in the composition can be calculated using a calibration curve prepared from aqueous nucleic acid solutions having known concentrations. The rate of encapsulation can be calculated on the basis of the difference in fluorescence intensity between the presence and absence of addition of Triton-X 100 (surfactant for disrupting the lipid particle). The concentration of the nucleic acid in the composition refers to the total concentration of a nucleic acid encapsulated in the lipid particle and an unencapsulated nucleic acid. The rate of encapsulation refers to the ratio of the nucleic acid encapsulated in the lipid particle to all nucleic acids in the composition.
(§1) A lipid mixture containing a cationic lipid of the Examples shown in Table 2 (cationic lipid:DPPC:cholesterol:GM-020=60:10.6:28:1.4, molar ratio) was dissolved in 90% of EtOH and 10% of water to obtain a 15.0 mg/ml lipid solution. Luciferase (luc) DNA (manufactured by Nature Technology Corp.) was dissolved in a 10 mM MES buffer solution (pH 5.5) to obtain a 0.3 mg/ml nucleic acid solution. The obtained lipid solution and nucleic acid solution were mixed at a flow rate ratio of 3 ml/min:6 ml/min at room temperature using NanoAssemblr (manufactured by Precision NanoSystems Inc.) to obtain a dispersion containing Luc DNA-encapsulated lipid nanoparticles. The obtained dispersion was dialyzed against water at room temperature for 1 hour and against PBS at 4° C. for 23 hours using Slyde-A-Lyzer (molecular weight cutoff: 20 K, Thermo Fischer Scientific Inc.). Subsequently, the dialysate was filtered through a 0.2 µm syringe filter (Iwaki). A 60% solution of sucrose in PBS was added thereto, and the mixture was preserved as a 20% solution of sucrose in PBS at −80° C. Analysis results of particle size and rate of encapsulation of the Luc DNA-encapsulated lipid nanoparticles are also shown in Table 2.

[2] = Particle size of Luc DNA-encapsulated lipid nanoparticles; format: physicochemical; details: cationic lipid:DPPC:cholesterol:GM-020=60:10.6:28:1.4 molar ratio
Excerpt: The particle size of the lipid particle (in the composition) can be measured by a known approach. For example, the particle size can be calculated as a Z-average particle size by the cumulant analysis of an autocorrelation function using a particle size measurement apparatus Zetasizer Nano ZS (Malvern Instruments) based on a dynamic light scattering measurement technique. The particle size (average particle size) of the lipid particle (in the composition) is, for example, 10 to 200 nm, preferably 60 to 170 nm.
as §1

ICrl:CD1 (ICR) mice = assay: Mouse bioluminescence imaging evaluation (Test Example 1); format: in vivo; details: Luc DNA-encapsulated lipid nanoparticles 10 mL/kg i.v. to ICR mice; IVIS total flux 15 minutes after luciferin i.p.
Protocol: The Luc DNA-encapsulated lipid nanopatricles obtained in the aforesaid Production Example were intravenously administered to the tails of ICrl:CD1 (ICR) mice (10 mL/kg i.v.). After administration of the lipid particles, luciferin (15 mg/mL) was administered to the mice (10 mL/kg i.p.), which were loaded in an IVIS (in vivo imaging system) apparatus (manufactured by PerkinElmer, Inc.) under isoflurane inhalation anesthesia. Luminescence images of the mice were taken ventrally (in a supine position) 15 minutes after luciferin administration. The luminescence was digitized with the software of IVIS, followed by evaluation using the value of total flux. Higher luminescence means strong expression of the protein encoded by the DNA encapsulate in the lipid particle. In Table 2, higher luminescence is indicated on a scale of A, B and C in order. A represents luminescence of 3.0E+07 or more, B represents luminescence of 1.0E+0.7 or more and less than 3.0E+07, and C represents luminescence of less than 1.0E+07.

Row | Structure (SMILES) | Rate of encapsulation [1] | Particle size (nm) [2] [nm] | Luminescence (ICrl:CD1 (ICR) mice)
1 | CCCCCC(CCCCC)CC(=O)OCC(COC(=O)CCCCCCCCCCC(=O)OC)(COC(=O)CCCCCCCCCCC(=O)OC)COC(=O)CCCN(C)C [Example 77, 1,1′-[2-({[4-(Dimethylamino)butanoyl]oxy}methyl)-2-{[(3-pentyloctanoyl)oxy]methyl}propane-1,3-diyl] 12,12′-dimethyl didodecanedioate] | 73.5 | 128.7 | B (B represents luminescence of 1.0E+0.7 or more and less than 3.0E+07)
2 | CCCCCCCOC(=O)CCCCC(=O)OCC(COC(=O)CCCCC(=O)OCCCCCCC)(COC(=O)CCCN(C)C)COC(=O)C(CCCCC)CCCCC [Example 83, 1,1′-[2-({[4-(Dimethylamino)butanoyl]oxy}methyl)-2-{[(2-pentylheptanoyl)oxy]methyl}propane-1,3-diyl] 6,6′-diheptyl dihexanedioate] | 92.9 | 148.7 | B (B represents luminescence of 1.0E+0.7 or more and less than 3.0E+07)
3 | CCCCCCCOC(=O)CCCCC(=O)OCC(COC(=O)CCCCC(=O)OCCCCCCC)(COC(=O)CCCN(C)C)COC(=O)CC(CCCC)CCCC [Example 84, 1,1′-[2-{[(3-Butylheptanoyl)oxy]methyl}-2-({[4-(dimethylamino)butanoyl]oxy}methyl)propane-1,3-diyl] 6,6′-diheptyl dihexanedioate] | 93.5 | 172.6 | B (B represents luminescence of 1.0E+0.7 or more and less than 3.0E+07)
4 | CCCCCCCOC(=O)CCCCC(=O)OCC(COC(=O)CCCCC(=O)OCCCCCCC)(COC(=O)CCCN(C)C)COC(=O)CC(CCCCCC)CCCCCC [Example 85, 1,1′-[2-({[4-(Dimethylamino)butanoyl]oxy}methyl)-2-{[(3-hexylnonanoyl)oxy]methyl}propane-1,3-diyl] 6,6′-diheptyl dihexanedioate] | 95.4 | 148.3 | B (B represents luminescence of 1.0E+0.7 or more and less than 3.0E+07)
5 | CCCCCCCOC(=O)CCCCC(=O)OCC(COC(=O)CCCCC(=O)OCCCCCCC)(COC(=O)CCCN(CC)C(C)C)COC(=O)CC(CCCCC)CCCCC [Example 91, 1,1′-(2-[({4-[Ethyl(propan-2-yl)amino]butanoyl}oxy)methyl]-2-{[(3-pentyloctanoyl)oxy]methyl}propane-1,3-diyl] 6,6′-diheptyl dihexanedioate] | 96.5 | 111.9 | B (B represents luminescence of 1.0E+0.7 or more and less than 3.0E+07)
6 | CCCCCCCOC(=O)CCCCC(=O)OCC(COC(=O)CCCCC(=O)OCCCCCCC)(COC(=O)CCCN(C(C)C)C(C)C)COC(=O)CC(CCCCC)CCCCC [Example 92, 1,1′-(2-[({4-[di(Propan-2-yl)amino]butanoyl}oxy)methyl]-2-{[(3-pentyloctanoyl)oxy]methyl}propane-1,3-diyl] 6,6′-diheptyl dihexanedioate] | 94.1 | 125.7 | B (B represents luminescence of 1.0E+0.7 or more and less than 3.0E+07)
7 | CCCCCCCOC(=O)CCCCC(=O)OCC(COC(=O)CCCCC(=O)OCCCCCCC)(COC(=O)CCCN(C)CCCO)COC(=O)CC(CCCCC)CCCCC [Example 94, 1,1′-Diheptyl 6,6′-(2-[({4-[(3-hydroxypropyl)(methyl)amino]butanoyl}oxy)methyl]-2-{[(3-pentyloctanoyl)oxy]methyl}propane-1,3-diyl) dihexanedioate] | 93.0 | 129.4 | C (C represents luminescence of less than 1.0E+07)
8 | CCCCCC(CCCCC)COC(=O)CCC(=O)OCC(COC(=O)CCCN(C)C)(COC(=O)CCC(=O)OCC(CCCCC)CCCCC)COC(=O)CC(CCCCC)CCCCC [Example 95, 1,1′-[2-({[4-(Dimethylamino)butanoyl]oxy}methyl)-2-{[(3-pentyloctanoyl)oxy]methyl}propane-1,3-diyl] 4,4′-bis(2-pentylheptyl) dibutanedioate] | 99.1 | 82.6 | B (B represents luminescence of 1.0E+0.7 or more and less than 3.0E+07)
9 | CCCCCC(CCCCC)COC(=O)CCC(=O)OCC(COC(=O)CCCN(C)C)(COC(=O)CC(CCCCC)CCCCC)COC(=O)CC(CCCCC)CCCCC [Example 96, 2-({[4-(Dimethylamino)butanoyl]oxy}methyl)-3-[(3-pentyloctanoyl)oxy]-2-{[(3-pentyloctanoyl)oxy]methyl}propyl 2-pentylheptyl butanedioate] | 98.8 | 74.2 | B (B represents luminescence of 1.0E+0.7 or more and less than 3.0E+07)
10 | CCCCCCCCCOC(=O)CCC(=O)OCC(COC(=O)CCCN(C)C)(COC(=O)CCC(=O)OCCCCCCCCC)COC(=O)CC(CCCCC)CCCCC [Example 97, 1,1′-[2-({[4-(Dimethylamino)butanoyl]oxy}methyl)-2-{[(3-pentyloctanoyl)oxy]methyl}propane-1,3-diyl] 4,4′-dinonyl dibutanedioate] | 97.8 | 118.7 | A (A represents luminescence of 3.0E+07 or more)
11 | CCCCCCCCOC(=O)CCCC(=O)OCC(COC(=O)CCCC(=O)OCCCCCCCC)(COC(=O)CCCN(C)C)COC(=O)CC(CCCCC)CCCCC [Example 98, 1,1′-[2-({[4-(Dimethylamino)butanoyl]oxy}methyl)-2-{[(3-pentyloctanoyl)oxy]methyl}propane-1,3-diyl] 5,5′-dioctyl dipentanedioate] | 96.3 | 140.5 | A (A represents luminescence of 3.0E+07 or more)
12 | CCCCCCOC(=O)CCCCCC(=O)OCC(COC(=O)CCCCCC(=O)OCCCCCC)(COC(=O)CCCN(C)C)COC(=O)CC(CCCCC)CCCCC [Example 99, 1,1′-[2-({[4-(Dimethylamino)butanoyl]oxy}methyl)-2-{[(3-pentyloctanoyl)oxy]methyl}propane-1,3-diyl] 7,7′-dihexyl diheptanedioate] | 92.4 | 153.8 | A (A represents luminescence of 3.0E+07 or more)
13 | CCCCCCCCCOC(=O)CCC(=O)OCC(COC(=O)CCCN(CC)C(C)C)(COC(=O)CCC(=O)OCCCCCCCCC)COC(=O)CC(CCCCC)CCCCC [Example 100] | 94.9 | 141.8 | B (B represents luminescence of 1.0E+0.7 or more and less than 3.0E+07)
14 | CCCCCCCCOC(=O)CCCC(=O)OCC(COC(=O)CCCC(=O)OCCCCCCCC)(COC(=O)CCCN(CC)C(C)C)COC(=O)CC(CCCCC)CCCCC [Example 101, 1,1′-(2-[({4-[Ethyl(propan-2-yl)amino]butanoyl}oxy)methyl]-2-{[(3-pentyloctanoyl)oxy]methyl}propane-1,3-diyl) 5,5′-dioctyl dipentanedioate] | 93.2 | 137.2 | A (A represents luminescence of 3.0E+07 or more)
15 | CCCCCCOC(=O)CCCCCC(=O)OCC(COC(=O)CCCCCC(=O)OCCCCCC)(COC(=O)CCCN(CC)C(C)C)COC(=O)CC(CCCCC)CCCCC [Example 102, 1,1′-(2-[({4-[Ethyl(propan-2-yl)amino]butanoyl}oxy)methyl]-2-{[(3-pentyloctanoyl)oxy]methyl}propane-1,3-diyl) 7,7′-dihexyl diheptanedioate] | 91.8 | 139.8 | B (B represents luminescence of 1.0E+0.7 or more and less than 3.0E+07)
